Values after ≈ are worked out from the molar mass of the structure shown. Values joined by “and” are separate entries in the source; they are usually repeats but may differ in a detail not shown here. Equal values may be shown once. Values belong to the molecule of their own block, whether it stands above or below them.
Tests used:
Assay in all cases: ≥ marks a high value that may be exact or a test limit, other limits are often not marked, values filed in µg/mL are converted to µM
[1] = test system: Mycobacterium tuberculosis H37Rv
[2] = test system: Escherichia coli ATCC 25922
[3] = test system: Staphylococcus aureus ATCC 25923
[4] = test system: Mycobacterium tuberculosis
[5] = test system: Bacillus subtilis ATCC 6051
Bacillus megaterium Bm11 = test system: Bacillus megaterium Bm11
[6] = test system: Acinetobacter calcoaceticus Ac11
Escherichia coli D21 = test system: Escherichia coli D21
[7] = test system: Pseudomonas aeruginosa ATCC 27853
[8] = test system: Salmonella enterica subsp. enterica serovar Typhimurium LT2
[9] = test system: Micrococcus luteus ATCC 9341
Escherichia coli HB101 = test system: Escherichia coli HB101
[10] = test system: Serratia marcescens ATCC 8100
Escherichia coli ML-35 = test system: Escherichia coli ML-35
[11] = test system: Salmonella enterica subsp. enterica serovar Typhimurium ATCC 14028
Micrococcus luteus = test system: Micrococcus luteus
[12] = test system: Pseudomonas aeruginosa NBRC 12582
Saccharomyces cerevisiae = test system: Saccharomyces cerevisiae
[13] = test system: Pseudomonas aeruginosa ATCC 15692
[14] = test system: Micrococcus luteus NBRC 12708
[15] = test system: Escherichia coli NBRC 14237
[16] = test system: Staphylococcus aureus NBRC 12732
[17] = test system: Pseudomonas aeruginosa IFO 12582
[18] = test system: Bacillus subtilis IFO 3134
[19] = test system: Staphylococcus aureus IFO 12732
[20] = test system: Escherichia coli IFO 12734
[21] = test system: Staphylococcus aureus ATCC 9144
[22] = test system: Corynebacterium glutamicum ATCC 13032
[23] = test system: Aspergillus niger CECT 2694
[24] = test system: Rhizopus stolonifer CECT 2344
[25] = test system: Penicillium expansum EPS 26
[26] = test system: Fusarium oxysporum f. sp. lycopersici ATCC 201829

Structure (SMILES): CC[C@H](C)[C@H](NC(=O)[C@H](CC(C)C)NC(=O)[C@H](CCCCN)NC(=O)[C@H](CC(C)C)NC(=O)[C@H](C)NC(=O)CNC(=O)[C@H](CCCCN)NC(=O)[C@H](C)NC(=O)[C@H](CC(C)C)NC(=O)[C@H](C)NC(=O)CNC(=O)[C@H](Cc1c[nH]c2ccccc12)NC(=O)[C@@H](N)Cc1ccccc1)C(=O)NCC(=O)N1CCC[C@H]1C(=O)NCC(=O)N[C@@H](CO)C(=O)N[C@@H](CC(C)C)C(=O)N[C@@H](Cc1ccccc1)C(=O)N[C@@H](CO)C(=O)N[C@@H](CO)C(=O)N[C@@H](Cc1ccccc1)C(=O)N[C@@H](CO)C(=O)N[C@@H](CCCCN)C(=O)N[C@@H](CCCCN)C(=O)N[C@@H](CC(=O)O)C(=O)O [FWGALAKGALKLIGPGSLFSSFSKKD]
MIC [1]: 29.4 µM (≈ 80.1 µg/mL)
MIC [2]: 12.5 µM and 25 µM
MIC [3]: 12.5 µM and 25 µM
MIC [4]: 17.6 µM (≈ 48.1 µg/mL)

MIC [5]: ≥ 100 µM
MIC (Bacillus megaterium Bm11): ≥ 100 µM
MIC [6]: ≥ 100 µM
MIC (Escherichia coli D21): ≥ 100 µM
MIC [7]: > 100 µM
MIC [8]: ≥ 100 µM
MIC [9]: ≥ 100 µM
Structure (SMILES): CC[C@H](C)[C@H](N)C(=O)N[C@@H](CO)C(=O)N[C@@H](CO)C(=O)N1CCC[C@H]1C(=O)N[C@@H](CC(C)C)C(=O)N[C@@H](Cc1ccccc1)C(=O)N[C@@H](CCCCN)C(=O)N[C@H](C(=O)N[C@@H](CC(C)C)C(=O)N[C@@H](CC(C)C)C(=O)N[C@@H](CO)C(=O)N[C@@H](C)C(=O)N[C@H](C(=O)NCC(=O)N[C@@H](CO)C(=O)N[C@@H](C)C(=O)N[C@@H](CC(C)C)C(=O)N[C@@H](CO)C(=O)N[C@@H](CO)C(=O)N[C@@H](CO)C(=O)NCC(=O)NCC(=O)N[C@@H](CCC(N)=O)C(=O)N[C@@H](CCC(=O)O)C(=O)O)C(C)C)[C@@H](C)O [ISSPLFKTLLSAVGSALSSSGGQE]

MIC (Escherichia coli HB101): ≥ 90.5 µM
MIC [10]: ≥ 128 µM
MIC (Escherichia coli ML-35): ≥ 128 µM
MIC [11]: > 128 µM
MIC [2]: > 128 µM
MIC [3]: > 128 µM
Structure (SMILES): CC[C@H](C)[C@H](NC(=O)[C@H](CCCN=C(N)N)NC(=O)[C@@H](N)CCCN=C(N)N)C(=O)N[C@@H](CCCN=C(N)N)C(=O)N1CCC[C@H]1C(=O)N[C@@H](CCCN=C(N)N)C(=O)N1CCC[C@H]1C(=O)N1CCC[C@H]1C(=O)N[C@@H](CCCN=C(N)N)C(=O)N[C@@H](CC(C)C)C(=O)N1CCC[C@H]1C(=O)N[C@@H](CCCN=C(N)N)C(=O)N1CCC[C@H]1C(=O)O [RRIRPRPPRLPRP]

MIC (Micrococcus luteus): 2 µM (≈ 3.68 µg/mL)
MIC [12]: ≥ 50 µM
MIC (Saccharomyces cerevisiae): ≥ 64 µM
MIC [2]: 128 µM (≈ 235 µg/mL)
MIC [3]: 32 µM (≈ 58.9 µg/mL)
MIC [13]: ≥ 256 µM
MIC [14]: ≥ 50 µM
MIC [15]: 12.5 µM (≈ 23 µg/mL)
MIC [16]: 12.5 µM (≈ 23 µg/mL)
Structure (SMILES): CC(C)C[C@H](NC(=O)[C@H](CC(C)C)NC(=O)[C@H](CC(N)=O)NC(=O)[C@H](CO)NC(=O)CNC(=O)[C@@H](NC(=O)[C@H](CCCCN)NC(=O)[C@H](CC(C)C)NC(=O)CNC(=O)[C@@H](NC(=O)[C@H](CCCCN)NC(=O)[C@H](CC(C)C)NC(=O)[C@H](CC(C)C)NC(=O)[C@H](CO)NC(=O)CNC(=O)[C@H](CC(C)C)NC(=O)[C@H](CC(C)C)NC(=O)[C@@H](N)CC(N)=O)[C@@H](C)O)C(C)C)C(N)=O [NLLGSLLKTGLKVGSNLL]

MIC [17]: ≥ 64 µM
MIC [18]: ≥ 64 µM
MIC [19]: ≥ 64 µM
MIC [20]: ≥ 64 µM
Structure (SMILES): CC[C@H](C)[C@H](NC(=O)[C@H](C)NC(=O)[C@@H]1CCCN1C(=O)[C@@H](NC(=O)[C@@H](NC(=O)[C@H](Cc1cnc[nH]1)NC(=O)[C@H](C)NC(=O)[C@H](C)NC(=O)[C@@H](NC(=O)[C@H](CCCCN)NC(=O)[C@H](C)NC(=O)[C@H](CC(C)C)NC(=O)[C@@H](NC(=O)CNC(=O)[C@H](Cc1ccccc1)NC(=O)[C@H](CC(C)C)NC(=O)CN)C(C)C)C(C)C)C(C)C)C(C)C)C(=O)N[C@@H](C)C(=O)N[C@@H](CCC(=O)O)C(N)=O [GLFGVLAKVAAHVVPAIAE]

MIC [17]: 16 µM (≈ 34.2 µg/mL)
MIC [18]: 2 µM (≈ 4.27 µg/mL)
MIC [19]: 4 µM (≈ 8.54 µg/mL)
MIC [20]: 8 µM (≈ 17.1 µg/mL)
Structure (SMILES): CC[C@H](C)[C@H](NC(=O)[C@H](C)NC(=O)[C@@H]1CCCN1C(=O)[C@@H](NC(=O)[C@@H](NC(=O)[C@H](CCCCN)NC(=O)[C@H](C)NC(=O)[C@H](C)NC(=O)[C@@H](NC(=O)[C@H](CCCCN)NC(=O)[C@H](C)NC(=O)[C@H](CC(C)C)NC(=O)[C@@H](NC(=O)CNC(=O)[C@H](Cc1ccccc1)NC(=O)[C@H](CC(C)C)NC(=O)CN)C(C)C)C(C)C)C(C)C)C(C)C)C(=O)N[C@@H](C)C(=O)N[C@@H](CCCCN)C(=O)N[C@@H](Cc1cnc[nH]1)C(=O)N[C@@H](Cc1ccccc1)C(N)=O [GLFGVLAKVAAKVVPAIAKHF]

MIC (Escherichia coli HB101): 1.13 µM (≈ 3.65 µg/mL)
MIC [7]: 4.42 µM (≈ 14.3 µg/mL)
MIC [2]: 1.13 µM (≈ 3.65 µg/mL)
MIC [21]: ≥ 50 µM
MIC [22]: 0.4 µM (≈ 1.29 µg/mL)
Structure (SMILES): CC[C@H](C)[C@H](NC(=O)[C@H](CCCN=C(N)N)NC(=O)[C@@H]1CCCN1C(=O)[C@@H]1CCCN1C(=O)[C@H](CC(C)C)NC(=O)[C@H](CCCN=C(N)N)NC(=O)[C@@H]1CCCN1C(=O)[C@@H]1CCCN1C(=O)[C@H](Cc1ccccc1)NC(=O)[C@H](Cc1ccccc1)NC(=O)[C@@H]1CCCN1C(=O)[C@@H]1CCCN1C(=O)[C@@H]1CCCN1C(=O)[C@H](CCCN=C(N)N)NC(=O)[C@@H]1CCCN1C(=O)[C@H](CCCN=C(N)N)NC(=O)[C@@H]1CCCN1C(=O)[C@H](CC(C)C)NC(=O)[C@H](Cc1ccc(O)cc1)NC(=O)[C@@H]1CCCN1C(=O)[C@@H]1CCCN1C(=O)[C@H](CCCN=C(N)N)NC(=O)[C@@H]1CCCN1C(=O)[C@H](CCCN=C(N)N)NC(=O)[C@H](CCCN=C(N)N)NC(=O)[C@@H](N)CCCN=C(N)N)C(=O)O [RRRPRPPYLPRPRPPPFFPPRLPPRI]

MIC [23]: 22.4 µM (≈ 30.8 µg/mL)
MIC [24]: ≥ 70.7 µM
MIC [25]: ≥ 35.4 µM
MIC [26]: 1.73 µM (≈ 2.38 µg/mL)
Structure (SMILES): CC[C@H](C)[C@H](NC(=O)[C@H](CCCCN)NC(=O)[C@H](CCCCN)NC(=O)[C@H](Cc1ccccc1)NC(=O)[C@H](CC(C)C)NC(=O)[C@H](CCCCN)NC(=O)[C@@H](N)Cc1ccccc1)C(=O)N[C@@H](CC(C)C)C(=O)N[C@@H](CCCCN)C(=O)N[C@H](C(=O)N[C@@H](CC(C)C)C(N)=O)C(C)C [FKLFKKILKVL]

MIC [12]: ≥ 50 µM
MIC [14]: ≥ 50 µM
MIC [15]: 12.5 µM (≈ 18.7 µg/mL)
MIC [16]: 12.5 µM (≈ 18.7 µg/mL)
Structure (SMILES): CC[C@H](C)[C@H](NC(=O)CNC(=O)[C@H](C)NC(=O)[C@H](CC(C)C)NC(=O)[C@H](CC(C)C)NC(=O)[C@H](CCCN=C(N)N)NC(=O)[C@@H]1CCCN1C(=O)[C@H](C)NC(=O)[C@H](CC(C)C)NC(=O)[C@H](CCCCN)NC(=O)[C@H](CC(C)C)NC(=O)[C@H](CC(C)C)NC(=O)[C@H](C)N)C(=O)N[C@@H](Cc1ccccc1)C(N)=O [ALLKLAPRLLAGIF]
